Experimental data from patent US20110196000A1, “Use of succinate dehydrogenase (SDH) inhibitors in the treatment of plant species from the family of the true grasses” (Bayer CropScience AG, priority 2010, published 2011).

How the values were obtained:
Format in all cases: in vivo
[1] = tested on: wheat variety Ritmo; test: Plot trial in Germany: green leaf area by visual scoring; details: sprays at BBCH 39 and 59
Description: In Germany a plot trial was set up with the wheat variety Ritmo in order to investigate the effect of bixafen on the physiology, morphology and abiotic stress tolerance of wheat plants under realistic agricultural conditions. The products under test were applied to the plants, in the form of sequential spray sequences (BBCH 39 and 59). The spray volume was 400 l of water per hectare. In each trial component, 5 repetitions were carried out. [table] The duration of green coloration of the leaf area was captured by regular visual scoring of the fraction of green leaf area.

[2] = tested on: wheat variety Ritmo; test: Plot trial: chlorophyll content of leaves (pigment extraction method of Ziegler and Ehle)
[3] = tested on: wheat variety Ritmo; test: Plot trial: yield components; details: sprays at BBCH 39 and 59
[4] = tested on: infection-free wheat plants of the cultivar Passat; test: Glasshouse trial: green leaf area by visual scoring; details: glasshouse
Description: (§1) In a glasshouse trial under controlled conditions, the effect of bixafen was investigated on the physiology, morphology and abiotic stress tolerance of infection-free wheat plants of the cultivar […] plants were grown in 10-litre containers over a period of 4 months. The substrate used was standard earth type ED 73 (Fröndenberg, Germany)+C-Horizont+Sand (4:2:1). The supply of nutrient to the plants took place by feeding with a 0.2% strength Flory 2 liquid fertilizer solution (from Euflor, Munich) once every two weeks. The plants were supplied with water as required. In each component of the trial, 10 repetitions were carried out. To prevent infestation with powdery mildew, Proquinazid (Talius® was applied once. The incidence of aphids and spider mites was avoided by treatments with Karate®, Bulldock® and Sumicidin®. The products under test were applied to the plants, in the form of sequential spray sequences (BBCH 39 and 59). The spray volume was 300 l of water per hectare. [table] The duration of the green coloration of the leaf area was captured on the basis of regular visual scoring of the fraction of the green leaf area.

[5] = tested on: infection-free wheat plants of the cultivar Passat; test: Glasshouse trial: yield components; details: glasshouse, sprays at BBCH 39 and 59
[6] = tested on: infection-free wheat plants of the cultivar Passat; test: Glasshouse trial: size of the flag leaf; details: at BBCH 83-85
Description: as §1, with “Morphological parameters measured, additionally, were the length and width, i.e. the size” for “The duration”, “flag leaf. This was greatest with” for “green coloration of”, “succinate dehydrogenase (SDH) inhibitor bixafen, in comparison to” for “leaf area was captured on”, “other comparison fungicides.” for “basis of regular visual scoring of the fraction of the green leaf area.”

[7] = tested on: infection-free wheat plants of the cultivar Passat; test: Glasshouse trial: time of heading (ear emergence); design: time of heading of wheat (ears emerged): unit not given here
Description: (§2) In a glasshouse trial under controlled conditions, the effect of bixafen was investigated on the physiology, morphology and abiotic stress tolerance of infection-free wheat plants of the cultivar […] plants were grown in 10-litre containers over a period of 4 months. The substrate used was standard earth type ED 73 (Fröndenberg, Germany)+C-Horizont+Sand (4:2:1). The supply of nutrient to the plants took place by feeding with a 0.2% strength Flory 2 liquid fertilizer solution (from Euflor, Munich) once every two weeks. The plants were supplied with water as required. In each component of the trial, 10 repetitions were carried out.

[8] = tested on: infection-free wheat plants of the cultivar Passat; test: Glasshouse trial: temperature of ears and leaves as measure of transpiration activity
Description: as §2

[9] = tested on: infection-free wheat plants of the cultivar Passat; test: Glasshouse trial: gas exchange activity of wheat ears; details: development stage BBCH 75
Description: as §2

[10] = 7 days after second fungicide application
[11] = 14 days after second fungicide application
[12] = 21 days after second fungicide application
[13] = 28 days after second fungicide application
[14] = 35 days after second fungicide application
[15] = 42 days after second fungicide application
[16] = 49 days after second fungicide application
[17] = BBCH 75 (mature milk), leaf F-1
[18] = BBCH 75 (mature milk), leaf F-2
[19] = BBCH 85 (mature dough), leaf F-1
[20] = BBCH 85 (mature dough), leaf F-2
[21] = 68 days after second fungicide application (so in the source)
[22] = 75 days after second fungicide application (so in the source)
[23] = 82 days after second fungicide application (so in the source)
[24] = 89 days after second fungicide application (so in the source)
[25] = 96 days after second fungicide application (so in the source)
[26] = 103 days after second fungicide application (so in the source)
[27] = 110 days after second fungicide application (so in the source)
[28] = 117 days after second fungicide application (so in the source)

## CCCN(CC)CC1COC2(CCC(C(C)(C)C)CC2)O1 (centres unmarked) [Spiroxamine]
[1]; [10]
  green leaf area of the flag leaf: 98.3 % leaf area
  green leaf area of the second-from-top leaf (F-1): 97.4 % leaf area
  green leaf area of the third-from-top leaf (F-2): 94.1 % leaf area
[1]; [11]
  green leaf area of the flag leaf: 97.9 % leaf area
  green leaf area of the second-from-top leaf (F-1): 95.8 % leaf area
  green leaf area of the third-from-top leaf (F-2): 93.3 % leaf area
[1]; [12]
  green leaf area of the flag leaf: 92.7 % leaf area
  green leaf area of the second-from-top leaf (F-1): 85.8 % leaf area
  green leaf area of the third-from-top leaf (F-2): 78.1 % leaf area
[1]; [13]
  green leaf area of the flag leaf: 82.3 % leaf area
  green leaf area of the second-from-top leaf (F-1): 69.7 % leaf area
  green leaf area of the third-from-top leaf (F-2): 51.7 % leaf area
[1]; [14]
  green leaf area of the flag leaf: 48.6 % leaf area
  green leaf area of the second-from-top leaf (F-1): 31.7 % leaf area
  green leaf area of the third-from-top leaf (F-2): 15.7 % leaf area
[1]; [15]
  green leaf area of the flag leaf: 5.5 % leaf area
  green leaf area of the second-from-top leaf (F-1): 0 % leaf area
  green leaf area of the third-from-top leaf (F-2): 0 % leaf area
[1]; [16]
  green leaf area of the second-from-top leaf (F-1): 0 % leaf area
[2]; BBCH 75 (mature milk), leaf F
  Chlorophyll content: 1471 µg/g
[2]; [17]
  Chlorophyll content: 1245 µg/g
[2]; [18]
  Chlorophyll content: 707 µg/g
[2]; BBCH 85 (mature dough), leaf F
  Chlorophyll content: 114 µg/g
[2]; [19]
  Chlorophyll content: 119 µg/g
[2]; [20]
  Chlorophyll content: 147 µg/g
[3]
  Ears/m^2: 409
  Harvest Index: 59.3
  Straw: 514 g m^−2
  TKM (thousand-kernel mass): 44.2 g
  Yield: 7.7 t ha^−1
[4]; [21]
  green leaf area of the flag leaf (F): 100 % leaf area
  green leaf area of the second-from-top leaf (F-1): 100 % leaf area
  green leaf area of the third-from-top leaf (F-2): 100 % leaf area
[4]; [22]
  green leaf area of the flag leaf (F): 100 % leaf area
  green leaf area of the second-from-top leaf (F-1): 100 % leaf area
  green leaf area of the third-from-top leaf (F-2): 95 % leaf area
[4]; [23]
  green leaf area of the flag leaf (F): 100 % leaf area
  green leaf area of the second-from-top leaf (F-1): 90 % leaf area
  green leaf area of the third-from-top leaf (F-2): 73 % leaf area
[4]; [24]
  green leaf area of the flag leaf (F): 92 % leaf area
  green leaf area of the second-from-top leaf (F-1): 77 % leaf area
  green leaf area of the third-from-top leaf (F-2): 45 % leaf area
[4]; [25]
  green leaf area of the flag leaf (F): 80 % leaf area
  green leaf area of the second-from-top leaf (F-1): 50 % leaf area
  green leaf area of the third-from-top leaf (F-2): 19 % leaf area
[4]; [26]
  green leaf area of the flag leaf (F): 55 % leaf area
  green leaf area of the second-from-top leaf (F-1): 23 % leaf area
  green leaf area of the third-from-top leaf (F-2): 7 % leaf area
[4]; [27]
  green leaf area of the flag leaf (F): 23 % leaf area
  green leaf area of the second-from-top leaf (F-1): 6 % leaf area
  green leaf area of the third-from-top leaf (F-2): 0 % leaf area
[4]; [28]
  green leaf area of the flag leaf (F): 3 % leaf area
  green leaf area of the second-from-top leaf (F-1): 0 % leaf area
  green leaf area of the third-from-top leaf (F-2): 0 % leaf area
[5]
  Ears/pot: 40.9
  Harvest Index: 36.3%
  Kernels/ear: 23.2
  Straw: 58.6 g/pot
  TKM (thousand-kernel mass): 35.5 g
  Yield: 33.4 g/pot
[6]
  Length of the flag leaf: 26.1 cm
  Width of the flag leaf: 1.2 cm
[6]; calculated using the formula A = 0.67 × length × width
  Area of the flag leaf: 20.98 cm^2
[6]; untreated = 100
  Area [rel.] of the flag leaf: 96 rel.
[7]; 45 days after sowing
  time of heading of wheat (ears emerged): 10.8
[7]; 50 days after sowing
  time of heading of wheat (ears emerged): 34.1
[7]; 55 days after sowing
  time of heading of wheat (ears emerged): 46.4
[7]; 60 days after sowing
  time of heading of wheat (ears emerged): 57.5
[7]; 65 days after sowing
  time of heading of wheat (ears emerged): 75.5
[7]; 70 days after sowing
  time of heading of wheat (ears emerged): 83.4
[7]; 75 days after sowing
  time of heading of wheat (ears emerged): 91.1
[7]; 80 days after sowing
  time of heading of wheat (ears emerged): 99.1
[7]; 85 days after sowing
  time of heading of wheat (ears emerged): 100
[8]; BBCH 75, ear
  Temperature (as a measure of the transpiration activity): 23.2 °C
[8]; BBCH 75, leaf
  Temperature (as a measure of the transpiration activity): 22.4 °C
[8]; BBCH 80, ear
  Temperature (as a measure of the transpiration activity): 20.2 °C
[8]; BBCH 80, leaf
  Temperature (as a measure of the transpiration activity): 16.4 °C
[8]; BBCH 85, ear
  Temperature (as a measure of the transpiration activity): 25.1 °C
[8]; BBCH 85, leaf
  Temperature (as a measure of the transpiration activity): 23.7 °C
[8]; BBCH 90, ear
  Temperature (as a measure of the transpiration activity): 24.2 °C
[8]; BBCH 90, lear (so in the source)
  Temperature (as a measure of the transpiration activity): 23.2 °C
[9]
  Photosynthesis (gas exchange activity of wheat ears): −2.36 a CO2 per ear
  Respiration (gas exchange activity of wheat ears): 2.82 b CO2 per ear

## O=C(Nc1ccccc1-c1ccc(Cl)cc1)c1cccnc1Cl [Boscalid, 2-chloro-N-(4′-chlorobiphenyl-2-yl)nicotinamide]
[1]; [10]
  green leaf area of the flag leaf: 96.0 % leaf area
  green leaf area of the second-from-top leaf (F-1): 94.4 % leaf area
  green leaf area of the third-from-top leaf (F-2): 90.3 % leaf area
[1]; [11]
  green leaf area of the flag leaf: 95.5 % leaf area
  green leaf area of the second-from-top leaf (F-1): 91.8 % leaf area
  green leaf area of the third-from-top leaf (F-2): 85.8 % leaf area
[1]; [12]
  green leaf area of the flag leaf: 86.1 % leaf area
  green leaf area of the second-from-top leaf (F-1): 74.7 % leaf area
  green leaf area of the third-from-top leaf (F-2): 61.5 % leaf area
[1]; [13]
  green leaf area of the flag leaf: 73.6 % leaf area
  green leaf area of the second-from-top leaf (F-1): 60.0 % leaf area
  green leaf area of the third-from-top leaf (F-2): 41.0 % leaf area
[1]; [14]
  green leaf area of the flag leaf: 43.2 % leaf area
  green leaf area of the second-from-top leaf (F-1): 25.5 % leaf area
  green leaf area of the third-from-top leaf (F-2): 4.6 % leaf area
[1]; [15]
  green leaf area of the flag leaf: 7.0 % leaf area
  green leaf area of the second-from-top leaf (F-1): 0 % leaf area
  green leaf area of the third-from-top leaf (F-2): 0 % leaf area
[1]; [16]
  green leaf area of the second-from-top leaf (F-1): 0 % leaf area
[2]; BBCH 75 (mature milk), leaf F
  Chlorophyll content: 1597 µg/g
[2]; [17]
  Chlorophyll content: 1505 µg/g
[2]; [18]
  Chlorophyll content: 826 µg/g
[2]; BBCH 85 (mature dough), leaf F
  Chlorophyll content: 188 µg/g
[2]; [19]
  Chlorophyll content: 160 µg/g
[2]; [20]
  Chlorophyll content: 110 µg/g
[3]
  Ears/m^2: 444
  Harvest Index: 58.6
  Straw: 514 g m^−2
  TKM (thousand-kernel mass): 44.6 g
  Yield: 7.8 t ha^−1
